Experimental data: the supplement of paper PMC10331698
± gives the standard deviation of the averaged measurements.

Columns and labels:
Experiment in all cases: level (log10 ratio to DMSO vehicle control); higher = higher biomarker level / cell amount than vehicle control
Conditions in all cases: in DMSO
[1] = compound: O=P(O)(O)CCC(F)(F)C(F)(F)C(F)(F)C(F)(F)C(F)(F)C(F)(F)F [2-(Perfluorohexyl)ethylphosphonic acid]
Description: (§1)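 BioMAP Diversity Plus panel of 12 human primary cell co-culture systems (3C, 4H, LPS, SAg, BT, BF4T, BE3C, CASM3C, HDF3CGF, KF3CT, MyoF, Mphg). Compounds were added 1 h before stimulation and left for 24 h (MyoF 48 h; BT 72 h for soluble read-outs or 6 d for IgG). Biomarkers were read by ELISA, cytotoxicity by SRB, PBMC viability and proliferation by Alamar Blue. Each well value was divided by the mean of 8 DMSO control wells on the same plate and log10 transformed; duplicate blinded samples were tested at 4 concentrations.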

[2] = compound: OCC(F)(F)C(F)(F)C(F)(F)C(F)(F)C(F)(F)C(F)(F)C(F)(F)C(F)(F)CO [1H,1H,10H,10H-Perfluorodecane-1,10-diol]
Description: as §1

[3] = compound: OCCCCC(F)(F)C(F)(F)C(F)(F)C(F)(F)F [4:4 Fluorotelomer alcohol]
Description: as §1

Row | Test System | level (log10) ([1]; 6700 nM) | level (log10) ([1]; 20000 nM) | level (log10) ([1]; 60000 nM) | level (log10) ([2]; 6700 nM) | level (log10) ([2]; 20000 nM) | level (log10) ([2]; 60000 nM) | level (log10) ([3]; 6700 nM) | level (log10) ([3]; 20000 nM) | level (log10) ([3]; 60000 nM)
1 | MyoF:TIMP-1 | -0.035 ± 0.017 | 0.013 ± 0.0042 | 0.028 ± 0.023 | 0.03 ± 0.031 | 0.078 ± 0.04 | 0.052 | 0.021 ± 0.062 | 0.0235 ± 0.067 | 0.0315 ± 0.087
2 | CASM3C:LDLR | -0.011 ± 0.017 | -0.0115 ± 0.0092 | -0.0135 ± 0.0092 | -0.016 ± 0.035 | 0.0035 ± 0.016 | -0.048 | 0.016 ± 0.0042 | 0.0175 ± 0.022 | 0.03 ± 0.042
3 | 3C:CD106/VCAM-1 | -0.012 ± 0.03 | -0.004 ± 0.025 | 0.0055 ± 0.061 | -0.023 ± 0.0071 | -0.0225 ± 0.0021 | -0.052 | -0.01 ± 0.0057 | -0.01 ± 0.016 | -0.0015 ± 0.0035
4 | lMphg:CCL2/MCP-1 | -0.004 ± 0.0071 | 0.01 ± 0.0042 | -0.0105 ± 0.005 | -0.0125 ± 0.016 | -0.0145 ± 0.005 | -0.653 | -0.0295 ± 0.037 | -0.0145 ± 0.00071 | 0.009 ± 0.0071
5 | lMphg:IL-1alpha | -0.0265 ± 0.021 | -0.029 ± 0.024 | 0.0075 ± 0.084 | 0.002 ± 0.028 | 0.0055 ± 0.046 | -0.167 | -0.0075 ± 0.005 | -0.0125 ± 0.005 | 0.0115 ± 0.015
6 | CASM3C:Serum Amyloid A | 0.004 ± 0.023 | -0.0045 ± 0.0035 | 0.0235 ± 0.0092 | -0.011 ± 0.0042 | -0.016 ± 0.0057 | -0.059 | -0.0055 ± 0.025 | -0.01 ± 0.047 | 0.0295 ± 0.063
7 | HDF3CGF:MMP-1 | 0.006 ± 0.0071 | -0.0095 ± 0.013 | -0.0045 ± 0.067 | 0.0025 ± 0.00071 | 0.005 ± 0.018 | -0.299 | -0.008 ± 0.0028 | 0.006 ± 0.0014 | 0.004 ± 0.0042
8 | KF3CT:MMP-9 | -0.0305 ± 0.012 | -0.024 ± 0.0071 | -0.0565 ± 0.026 | 0.005 ± 0.03 | 0.0465 ± 0.00071 | -0.197 | -0.011 ± 0.013 | -0.003 ± 0.034 | 0.011 ± 0.021
9 | MyoF:PAI-I | -0.0305 ± 0.0092 | -0.0115 ± 0.0064 | 0.0005 ± 0.013 | -0.0155 ± 0.005 | -0.008 ± 0.0042 | -0.005 | 0.0125 ± 0.011 | 0.007 ± 0.011 | 0.0095 ± 0.016
10 | KF3CT:SRB | -0.0015 ± 0.0035 | -0.011 ± 0.0028 | -0.007 ± 0.013 | -0.0155 ± 0.015 | -0.022 ± 0.011 | -0.25 | -0.02 ± 0.0085 | -0.011 ± 0.017 | 0.004 ± 0.018
11 | BE3C:SRB | -0.01 ± 0.0042 | -0.001 ± 0.0085 | 0.001 ± 0.02 | -0.003 | -0.0105 ± 0.00071 | -0.024 | -0.0065 ± 0.0035 | -0.0035 ± 0.005 | 0.0015 ± 0.016
12 | lMphg:M-CSF | -0.0175 ± 0.016 | -0.0335 ± 0.015 | -0.0075 ± 0.016 | -0.0155 ± 0.005 | -0.031 | -0.097 | -0.0185 ± 0.019 | -0.0095 ± 0.0035 | 0.0105 ± 0.042
13 | HDF3CGF:CXCL10/IP-10 | 0.014 ± 0.0028 | 0.0505 ± 0.0078 | 0.0525 ± 0.037 | -0.0045 ± 0.028 | -0.0355 ± 0.0035 | -0.578 | 0.0065 ± 0.0092 | 0.0155 ± 0.013 | 0.0105 ± 0.016
